# Results taken from patent US20110190333A1, “DIHYDROTETRABENANZINE FOR THE TREATMENT OF ANXIETY” (Biovail Laboratories International (Barbados) S.R.L., priority 2008, published 2011).
# Assays:
# [1] = tested on: female hooded-Lister rats; assay: Elevated plus maze, Study 1; format: in vivo, rat
# Text: (§1) The elevated plus maze has been widely used as a test for anxiety, as it avoids confounding effects on consummatory responses or sensitivity to shock and it has a certain level of ethological relevance (see Rodgers R J, Cole J C (1994) The elevated plus maze. Pharmacological methods and ethology. In: Cooper, S J, Hendrie C A (eds) Ethology and Psychopharmacology. J. Wiley & Sons Ltd, pp 9-941994).
# (§2) The maze consists of opposite pairs of open and closed arms, and the proportion of exploration carried out on the open arms is taken to be a measure of anxiety. Thus the percentage of open arm entries is increased by known anxiolytic agents and reduced by anxiogenic compounds (Pellow, S, Chopin P, File S E, Briley, M (1985) Validation of open: closed arm entries in an elevated plus maze as a measure of anxiety in the rat. J. Neurosci. Meth. 14: 149-167). In addition, the plus maze may be used to examine the behavioural response to stress, as exposure induces the release of corticosterone File, S E, Pellow, S (1987) Behavioural pharmacology of minor tranquillisers. J. Pharmacol. Exp. Ther. 35: 265-290). The elevated plus maze is based on an approach conflict model and has been validated as a model of anxiety in the rat (Tomkins D M (1990) The behavioural effects of anxiogenic agents in rodents. PhD thesis. Postgraduate studies in Pharmacology. University of Bradford).
# (§3) Two studies were carried out using the elevated plus maze method and the aim of the studies was to assess the ability of a Isomer A for its ability to produce an anxiolytic effect in female hooded-Lister rats.
# (§4) A total of 90 female hooded-Lister rats were used as subjects for study 1. Female hooded-Lister rats (Harlan, UK) were obtained as adults and weighed approximately 200-220 g at the start of the study. Subjects were housed in routinely used home cages in groups of 5 per cage. Home cages measured 59×35×24 cm. Rats were maintained under standard laboratory conditions on a 12:12 hour light/dark cycle (lights on at 08:00 h). Experimental procedures were performed in the light phase. Laboratory rooms were temperature controlled at 21±2° C. and humidity remained at 40-50% throughout the study. Rats were tested in the naïve state i.e. they had no exposure to the plus maze prior to testing, although they were handled and received sham injections prior to testing.
# Isomer A (1.0-30.0 mg/kg) and chlordiazepoxide (1.0-5.0 mg/kg) were tested. Isomer A was dissolved in water and administered via the oral route 30 minutes prior to testing. Chlordiazepoxide (CDP) was dissolved in saline and administered via the intraperitoneal route 30 min prior to testing.
# (§5) The maze consisted of a +shaped maze, made of Perspex, with two open arms (30×5 cm) and two closed arms (30×5 cm). The maze was arranged so that like arms are opposing. The closed arms were surrounded by matt black walls on all sides (10 cm in height). The maze was elevated to a height of 50 cm, and the surface was covered with a removable rubber matting. The behaviour of drug or vehicle-treated rats was monitored by means of a video camera attached to a TV monitor and video recorder. The rat was placed in the centre square and behaviour monitored over a 10 min test period. […] The maze was cleaned between tests and rats were placed on the maze in a randomised manner in order to minimise the effects of familiar cage mate odours.
# (§6) Behaviour was recorded and the following parameters were analysed from the video tapes using the Hindsight® program for ethological analysis of behaviour: time spent on, and entries into, the open and closed arms, time spent in the centre square and rearing on the open and closed arms.
# (§7) Elevated plus maze data were analysed by a one way ANOVA, followed by Dunnett's t test to assess drug effects on number of entries into the open and closed arms, length of time spent, and number of rears in, open and closed arms, and time spent in the centre square compared with vehicle.
# [2] = tested on: female hooded-Lister rats; assay: Elevated plus maze, Study 2; format: in vivo, rat
# Text: as §1, §2, §3
# as §4, with “60” for “90”, “B.” for “1.”, “(Charles River,” for “(Harlan,”, “220-250” for “200-220”
# Isomer A (0.1-2.5 mg/kg) and chlordiazepoxide (2.5 mg/kg) were tested. Isomer A was dissolved in water and administered via the oral route (p.o.) 30 minutes prior to testing. Chlordiazepoxide (CDP) was dissolved in saline and administered via the intraperitoneal route (i.p.) 30 min prior to testing.
# as §5, §6, §7
# [3] = Isomer A 1.0-10 mg/kg p.o., 10 min trial, ANOVA
# [4] = Isomer A 1.0-10 mg/kg p.o., 10 minute trial, ANOVA
# [5] = Isomer A 1.0-10 mg/kg p.o., 10 minute trial, overall ANOVA
# [6] = CDP 2.5 mg/kg i.p. and Isomer A 0.1-2.5 mg/kg p.o., 10 min trial, overall ANOVA
# [7] = CDP 1.0-5.0 mg/kg i.p., 10 min trial, ANOVA
smiles,measurement,setting,value
"COc1cc2c(cc1OC)[C@@H]1C[C@@H](O)[C@H](CC(C)C)CN1CC2 (single isomer, unassigned) [Isomer A]",total open arm entries,"[1]; Isomer A 1 mg/kg p.o., 10 minute trial",trend towards an increase
same,magnitude of the increase in time spent on the open arms relative to CDP at 2.5 mg/kg,"[1]; Isomer A 1 mg/kg p.o., Study 1",comparable
same,time spent on the open arms,"[1]; Isomer A 1 mg/kg p.o., post-hoc vs vehicle (p<0.05)",significant increase
same,overall activity levels on the elevated plus maze,"[1]; Isomer A 30 mg/kg p.o., animals remained stationary for much of the 10 minute test, behaviour not scored",markedly reduced
same,time spent in the centre square,[1]; [3],no significant effect
same,time spent on the closed arms,[1]; [3],no significant effect
same,number of rears,[1]; [4],no significant effect
same,total closed arm entries,[1]; [4],no significant effect
same,time spent on the open arms,[1]; [5],overall significant effect
same,total open arm entries,[1]; [5],significant effect
same,anxiolytic effect on the elevated plus maze,"[1]; Isomer A, Study 1, some measures of behaviour",some anxiolytic potential
same,time spent on the closed arms,"[1]; Isomer A, most marked at 1.0 mg/kg p.o., failed to reach statistical significance",trend towards a reduction
same,number of rears,[2]; [6],no overall significant effect
same,time spent in the centre square,[2]; [6],no overall significant effect
same,time spent on the closed arms,[2]; [6],overall significant effect
same,time spent on the open arms,[2]; [6],overall significant effect
same,total closed arm entries,[2]; [6],no overall significant effect
same,total open arm entries,[2]; [6],no overall significant effect
same,time in the centre square,"[2]; Isomer A 0.1 mg/kg p.o., effect failed to achieve statistical significance",reduced
same,time spent on the closed arms,"[2]; Isomer A 1.0 mg/kg p.o., post-hoc vs vehicle (p<0.05)",significant reduction
same,magnitude of the increase in time spent on the open arms relative to CDP at 2.5 mg/kg,"[2]; Isomer A 0.1-2.5 mg/kg p.o., Study 2",comparable
same,time spent on the open arms,"[2]; Isomer A, all doses 0.1-2.5 mg/kg p.o., post-hoc vs vehicle (p<0.05-p<0.001)",significant increase
same,anxiolytic effect on the elevated plus maze,"[2]; Isomer A, all doses tested 0.1-2.5 mg/kg p.o., Study 2, certain measures of behaviour",anxiolytic potential
"CNC1=Nc2ccc(Cl)cc2C(c2ccccc2)=[N+]([O-])C1 [CDP, chlordiazepoxide, reference compound]",number of rears,[1]; [7],no significant effect
same,time spent on the closed arms,[1]; [7],no significant effect
same,total closed arm entries,"[1]; CDP 1.0-5.0 mg/kg i.p., 10 minute trial, ANOVA",no significant effect
